# From US9637473B2, “Acrylamide derivatives as antimalarial agents” (priority 2013, dated 2017)
# pIC50: −log10 of the molar value. Structures can show the parent of a compound that is named as a salt.
# Tested on: P. Falciparum NF54
# Test: Plasmodium falciparum in vitro assay ([3H]-hypoxanthine incorporation)
# Format: cell-based
# Conditions: P. Falciparum NF54, erythrocytic stages in human red blood cells, 50% human serum
# Experimental: In Vitro Antimalarial Activity: Plasmodium falciparum In Vitro Assay: In vitro activity against erythrocytic stages of P. Falciparum in human red blood cells is determined using a [^3H]-hypoxanthine incorporation assay. One strain sensitive to all drugs (P. […] After 48 hours, [^3H]-hypoxanthine (0.5 μCi) is added to each well of a plate. The plates are incubated for a further 24 hours under the same conditions then harvested with a Betaplate cell harvester (Wallac) and washed with distilled water. The dried filters are inserted into a plastic foil with 10 mL of scintillation fluid and counted in a Betaplate liquid scintillation counter. IC50 values are calculated from sigmoidal inhibition curves using Microsoft Excel.
row,SMILES,pIC50
1,"CN1CCC(N2CCC(N(Cc3ccc(N(C)c4ccncc4)cc3)C(=O)/C=C/c3ccc(C(F)(F)F)cc3)C(F)C2)CC1 (racemic) [Example 79, (±)-(E)-N-(trans-3-fluoro-1′-methyl-[1,4′-bipiperidin]-4-yl)-N-(4-(methyl(pyridin-4-yl)amino)benzyl)-3-(4-(trifluoromethyl)phenyl)acrylamide]",7.68

# Same assay, conditions: Plasmodium falciparum, Erythrocyte, P. Falciparum NF54, erythrocytic stages in human red blood cells, 50% human serum
row,SMILES,pIC50
1,"CN(c1ccncc1)c1ccc(CN(C(=O)/C=C/c2ccc(C(F)(F)F)cc2)C2CCN(Cc3nc4ccccc4n3C)CC2)cc1 [Example 21, (E)-N-[1-(1-Methyl-1H-benzoimidazol-2-ylmethyl)-piperidin-4-yl]-N-[4-(methyl-pyridin-4-yl-amino)-benzyl]-3-(4-trifluoromethyl-phenyl)-acrylamide]",6.45
2,"CC(C)N1CCN(c2ccc(CN(C(=O)/C=C/c3ccc(C(F)(F)F)cc3)C3CCN(C4CCCC4)CC3)cc2)CC1 [Example 199, (E)-N-(1-Cyclopentyl-piperidin-4-yl)-N-[4-(4-isopropyl-piperazin-1-yl)-benzyl]-3-(4-trifluoromethyl-phenyl)-acrylamide]",7.02
3,"Cc1cc(-c2ccc(CN(C(=O)/C=C/c3ccc(C(F)(F)F)cc3)C3CCN(C4CCCC4)CC3)cc2)ccn1 [Example 196, (E)-N-(1-Cyclopentyl-piperidin-4-yl)-N-[4-(2-methyl-pyridin-4-yl)-benzyl]-3-(4-trifluoromethyl-phenyl)-acrylamide]",6.61
4,"CC(C)N1CCC(N(Cc2cccc(Nc3ccncn3)c2)C(=O)/C=C/c2ccc(C(F)(F)F)cc2)CC1 [Example 125, (E)-N-(1-Isopropyl-piperidin-4-yl)-N-[3-(pyrimidin-4-ylamino)-benzyl]-3-(4-trifluoromethyl-phenyl)-acrylamide formate]",6.47
5,"CC(C)N1CCC(N(Cc2cncc(N(C)c3cccnc3)c2)C(=O)/C=C/c2ccc(C(F)(F)F)cc2)CC1 [Example 134, (E)-N-(1-Isopropyl-piperidin-4-yl)-N-[5-(methyl-pyridin-3-yl-amino)-pyridin-3-ylmethyl]-3-(4-trifluoromethyl-phenyl)-acrylamide formate]",6.67
6,"Cc1cc(Nc2ccc(CN(C(=O)/C=C/c3ccc(Cl)cc3)C3CCN(C4CCCC4)CC3)nc2)ccn1 [Example 171, (E)-3-(4-Chloro-phenyl)-N-(1-cyclopentyl-piperidin-4-yl)-N-[5-(2-methyl-pyridin-4-ylamino)-pyridin-2-ylmethyl]-acrylamide]",6.87
7,"Cc1ncc(-c2ccc(CN(C(=O)/C=C/c3ccc(C(F)(F)F)cc3)C3CCN(C4CCCC4)CC3)cc2)s1 [Example 201, (E)-N-(1-Cyclopentyl-piperidin-4-yl)-N-[4-(2-methyl-thiazol-5-yl)-benzyl]-3-(4-trifluoromethyl-phenyl)-acrylamide]",6.45
8,"CN(c1ccncc1)c1ccc(CN(C(=O)/C=C/c2ccc(C(F)(F)F)cc2)[C@@H]2CCN(C3CCCC3)C[C@H]2F)cc1 (racemic) [Example 80, (±)-(E)-N-(trans-1-cyclopentyl-3-fluoropiperidin-4-yl)-N-(4-(methyl(pyridin-4-yl)amino)benzyl)-3-(4-(trifluoromethyl)phenyl)acrylamide]",6.98
9,"Cc1cc(Nc2ccc(CN(C(=O)/C=C/c3ccc(C(F)(F)F)cc3)C3CCN(Cc4cnc(C)nc4)CC3)cc2)ccn1 [Example 51, (E)-N-[4-(2-Methyl-pyridin-4-ylamino)-benzyl]-N-[1-(2-methyl-pyrimidin-5-ylmethyl)-piperidin-4-yl]-3-(4-trifluoromethyl-phenyl)-acrylamide]",6.57
10,"COc1ccccc1/C=C/C(=O)N(Cc1ccc(N(C)c2ccncc2)cc1)C1CCN(Cc2ccccc2)CC1 [Example 151, (E)-N-(1-Benzyl-piperidin-4-yl)-3-(2-methoxy-phenyl)-N-[4-(methyl-pyridin-4-yl-amino)-benzyl]-acrylamide]",6.65
11,"O=C(/C=C/c1ccc(C(F)(F)F)cc1)N(Cc1ccc(Nc2cncnc2)cc1)C1CCN(C2CCCC2)CC1 [Example 91, (E)-N-(1-Cyclopentyl-piperidin-4-yl)-N-[4-(pyrimidin-5-ylamino)-benzyl]-3-(4-trifluoromethyl-phenyl)-acrylamide]",6.54
12,"Cc1cc(Nc2ccc(CN(C(=O)/C=C/c3ccc(C(F)(F)F)cc3)C3CCN(C4CCCC4)CC3)cn2)ncn1 [Example 109, (E)-N-(1-Cyclopentyl-piperidin-4-yl)-N-[6-(6-methyl-pyrimidin-4-ylamino)-pyridin-3-ylmethyl]-3-(4-trifluoromethyl-phenyl)-acrylamide]",6.41

# More lines, now with the values ahead:
row,pIC50,SMILES
1,7.09,"CC(C)CCN1CCC[C@H](N(Cc2ccc(N(C)c3ccncc3)cc2)C(=O)/C=C/c2ccc(C(F)(F)F)cc2)C1 [Example 61, (S,E)-N-(1-isopentylpiperidin-3-yl)-N-(4-(methyl(pyridin-4-yl)amino)benzyl)-3-(4-(trifluoromethyl)phenyl)acrylamide]"
2,7.85,"CN(c1ccncc1)c1ccc(CN(C(=O)/C=C/c2ccc(C(F)(F)F)cc2)C2CCN(CC3CC4C=CC3C4)CC2)cc1 (stereo not shown) [Example 10, (E)-N-(1′-Bicyclo[2.2.1]hept-5-en-2-ylmethyl-piperidin-4-yl)-N-[4-(methyl-pyridin-4-yl-amino)-benzyl]-3-(4-trifluoromethyl-phenyl)-acrylamide]"
3,7.36,"O=C(/C=C/c1ccc(C(F)(F)F)cc1)N(Cc1ccc(Nc2ccncc2)nc1)C1CCN(C2CCCC2)CC1 [Example 103, (E)-N-(1-Cyclopentyl-piperidin-4-yl)-N-[6-(pyridin-4-ylamino)-pyridin-3-ylmethyl]-3-(4-trifluoromethyl-phenyl)-acrylamide]"
4,7.16,"CN1CCC(N2CCC(N(Cc3ccc(N(C)c4ccncc4)cc3)C(=O)/C=C/c3ccccc3)CC2)CC1 [Example 182, (E)-N-(1′-Methyl-[1,4′]bipiperidinyl-4-yl)-N-[4-(methyl-pyridin-4-yl-amino)-benzyl]-3-phenyl-acrylamide]"
5,7.39,"CN(c1ccncc1)c1ccc(CN(C(=O)/C=C/c2ccc(C(F)(F)F)cc2)C2CC3(C2)CN(C2CCCC2)C3)cc1 [Example 74, (E)-N-(2-cyclopentyl-2-azaspiro[3.3]heptan-6-yl)-N-(4-(methyl(pyridin-4-yl)amino)benzyl)-3-(4-(trifluoromethyl)phenyl)acrylamide]"
6,7.29,"CN(c1ccncc1)c1ccc(CN(C(=O)/C=C/c2ccc(C(F)(F)F)cc2)C2CCN(Cc3cnn(-c4ccccc4)c3)CC2)cc1 [Example 18, (E)-N-[4-(Methyl-pyridin-4-yl-amino)-benzyl]-N-[1-(1-phenyl-1H-pyrazol-4-ylmethyl)-piperidin-4-yl]-3-(4-trifluoromethyl-phenyl)-acrylamide]"
7,7.16,"CC(C)N1CCC(N(Cc2cncc(N(C)c3ccncc3)c2)C(=O)/C=C/c2ccc(C(F)(F)F)cc2)CC1 [Example 133, (E)-N-(1-Isopropyl-piperidin-4-yl)-N-[5-(methyl-pyridin-4-yl-amino)-pyridin-3-ylmethyl]-3-(4-trifluoromethyl-phenyl)-acrylamide formate]"
8,7.17,"Cc1cc(Nc2ccc(CN(CCCN(C)C)C(=O)/C=C/c3ccc(C(F)(F)F)cc3)cc2)ccn1 [Example 166, (E)-N-(3-Dimethylamino-propyl)-N-[4-(2-methyl-pyridin-4-ylamino)-benzyl]-3-(4-trifluoromethyl-phenyl)-acrylamide]"
9,7.68,"Cc1cnccc1Nc1cccc(CN(C(=O)/C=C/c2ccc(C(F)(F)F)cc2)C2CCN(C(C)C)CC2)c1 [Example 123, (E)-N-(1-Isopropyl-piperidin-4-yl)-N-[3-(3-methyl-pyridin-4-ylamino)-benzyl]-3-(4-trifluoromethyl-phenyl)-acrylamide formate]"
10,7.05,"Cc1cc(Nc2ccc(CN(C(=O)/C=C/c3ccc(C(F)(F)F)cc3)[C@H]3CCCN(C(C)C)C3)cn2)ccn1 [Example 120, (E)-N-((S)-1-Isopropyl-piperidin-3-yl)-N-[6-(2-methyl-pyridin-4-ylamino)-pyridin-3-ylmethyl]-3-(4-trifluoromethyl-phenyl)-acrylamide]"
11,7.38,"CN1CCC(N2CC3(CC(N(Cc4ccc(N(C)c5ccncc5)cc4)C(=O)/C=C/c4ccc(C(F)(F)F)cc4)C3)C2)CC1 [Example 73, (E)-N-(4-(methyl(pyridin-4-yl)amino)benzyl)-N-(2-(1-methylpiperidin-4-yl)-2-azaspiro[3.3]heptan-6-yl)-3-(4-(trifluoromethyl)phenyl)acrylamide]"
12,7.24,"CN(C)CCN1CCC(N(Cc2ccc(N(C)c3ccncc3)cc2)C(=O)/C=C/c2ccc(C(F)(F)F)cc2)CC1 [Example 195, (E)-N-[1-(2-Dimethylamino-ethyl)-piperidin-4-yl]-N-[4-(methyl-pyridin-4-yl-amino)-benzyl]-3-(4-trifluoromethyl-phenyl)-acrylamide formate]"
13,7.68,"CN1CCC(N2CCC(N(Cc3ccc(N(C)c4ccncc4)cc3)C(=O)/C=C/c3ccc(Cl)cc3)CC2)CC1 [Example 180, (E)-3-(4-Chloro-phenyl)-N-(1′-methyl-[1,4′]bipiperidinyl-4-yl)-N-[4-(methyl-pyridin-4-yl-amino)-benzyl]-acrylamide]"
14,7.08,"Cc1cc(N(C)c2cncc(CN(C(=O)/C=C/c3ccc(C(F)(F)F)cc3)C3CCN(C(C)C)CC3)c2)ccn1 [Example 135, (E)-N-(1-Isopropyl-piperidin-4-yl)-N-{5-[methyl-(2-methyl-pyridin-4-yl)-amino]-pyridin-3-ylmethyl}-3-(4-trifluoromethyl-phenyl)-acrylamide formate]"
15,7.24,"Cc1cc(Nc2ccc(CN(CCN(C)C)C(=O)/C=C/c3ccc(C(F)(F)F)cc3)cc2)ccn1 [Example 176, (E)-N-(2-Dimethylamino-ethyl)-N-[4-(2-methyl-pyridin-4-ylamino)-benzyl]-3-(4-trifluoromethyl-phenyl)-acrylamide]"
